{"source": "patent US20130090516A1", "about": "“Local Anesthesia By Magnet-Directed Concentration of Nanoparticle Conjugated Anesthetic” (CARNEGIE MELLON UNIVERSITY, priority 2011, published 2013)", "key": {"[1]": {"experiment": "Plasma concentration / pharmacokinetics of ropivacaine after intravenous administration", "format": "in vivo, rat", "protocol": "For the assessment of plasma concentration of ropivacaine, the following groups were studied:\n(§1) Each group included 3 animals. A volume of 0.3 ml of blood was drawn before injection, and at 15, 30, 60, 120, 180, 240 and 300 minutes after the injections. […] The animals in groups Bplasma and Cplasma had 14 mg of ropivacaine complexed with MNPs. In group Cplasma, the magnet assembly used in Example 2 was placed around the right ankle before injection and removed after 30 minutes.\nAfter intravenous administration, the plasma concentration of ropivacaine declined in an exponential manner as expected, in all three groups. Group Aplasma cannot be directly compared to the other two groups because the close in group Aplasma was 14 times lower. Between groups Bplasma and Cplasma, there were no differences in any parameter. Data are presented as mean (SD). Lambda-Z is defined as terminal elimination rate constant. AUC is the area under the concentration curve. Vd is the volume of distribution. Cl is clearance rate. N/A means not applicable. Listed probability values are established through t-tests between groups B and C."}, "[2]": {"details": "rat, in vivo", "quoted_text": "(§2) The experiments were done after placing the animals under isoflurane anesthesia and spontaneous ventilation. A volume of 2 milliliters of the injectate was given at 5-15° C. intravenously via a tail vein cannula over four to five minutes. A jugular catheter was inserted where necessary for blood withdrawals.\n(§3) A separate set of two animals for each condition were used to assess ropivacaine concentration in the ankle.\n(§4) In all groups, 0.3 ml of blood was withdrawn at baseline, at 15 minutes, and at 30 minutes for plasma ropivacaine determination. At 30 minutes, skin and subcutaneous tissue all around the right ankle were isolated for ropivacaine analysis. Analysis was performed by HPLC-MS-MS.\nAgain, data are presented as mean (SD)"}, "[3]": {"experiment": "Ropivacaine concentration in ankle tissue and plasma at 30 minutes (HPLC-MS-MS)", "details": "Group A, ropivacaine only, 0.5 h", "quoted_text": "as §2, §3, §4\nAgain, data are presented as mean (SD)"}, "Sprague Dawley rats [4]": {"system": "Sprague Dawley rats", "experiment": "Acute toxicity after intravenous injection (cardiopulmonary arrest as evidence of toxicity)", "format": "in vivo, rat", "details": "1.2 mg intravenous", "protocol": "Conjugated nanoparticles so prepared may be injected intravenously into a subject. […] The efficacy as a local anesthetic when concentrated with an external magnet was assessed in the following experiment.\nSpecifically, acute toxicity studies of unconjugated magnetic nanoparticles, assay of plasma concentration of ropivacaine, and measurement of tissue concentration of ropivacaine at the ankle were performed.\nAcute toxicity studies of unconjugated magnetic nanoparticles were conducted in 10 animals. Cardiopulmonary arrest was taken as evidence of toxicity.\nas §1"}, "Sprague Dawley rats [5]": {"system": "Sprague Dawley rats", "experiment": "Hargreaves test of thermal nociception (paw withdrawal latency)", "format": "in vivo, rat", "details": "subcutaneous 0.8 ml of 0.1% or 0.2%, six animals each", "excerpt": "Sprague Dawley rats (300-350 grams) were used to assess the efficacy of formulations of ropivacaine generated as described above. The Hargreaves test of thermal nociception evaluates the level of sensory anesthesia of the plantar surface of the paw and was used to assess pain sensation here. Animals were placed in individual Plexiglas testing chambers in a modified Hargreaves box. Hargreaves et al., 1988, which is hereby incorporated by reference. A very low power idle intensity beam was used to initially target the plantar surface of the hind paw. Once appropriately placed, the beam was switched to a higher power active intensity (approximately 50% of maximum intensity). This causes radiant heat stimulation of the plantar hind paw and allows for a measure of the latency of the rat's paw withdrawal threshold.\nBefore each experiment, baseline nociception testing was performed on the animals. In all experiments, the left paws were used as controls and the right paws were utilized in the treatment condition. Rats were anesthetized using the general anesthetic isoflurane, awaked after a designated time, and the paws were tested after their returned to baseline wakefulness (approximately 5-10 minutes). Each hind paw was tested at 5 minute intervals for 40 minutes and at 10-minute intervals for 120 minutes. […]"}}, "data": [{"smiles": "CCCN1CCCC[C@H]1C(=O)Nc1c(C)cccc1C", "note": "[Plain ropiv, ropivacaine]", "values": [{"measurement": "Cmax", "setting": "[1]; Group A, 1 mg ropivacaine iv, mean", "value": 863.3, "unit": "ng/mL"}, {"measurement": "Cmax (dose normalized)", "setting": "[1]; rat, in vivo, iv", "value": 863.3, "unit": "ng/mL/mg"}, {"measurement": "AUC (0-inf)", "setting": "[1]; rat, in vivo, iv, 1 mg", "value": 875, "unit": "ng·h/mL"}, {"measurement": "Cl (clearance rate)", "setting": "[1]; rat, in vivo, iv, 1 mg", "value": 1462, "unit": "mL/h"}, {"measurement": "Half life", "setting": "[1]; rat, in vivo, iv, 1 mg", "value": 97.8, "unit": "min"}, {"measurement": "Tmax", "setting": "[1]; rat, in vivo, iv, 1 mg", "value": 15, "unit": "min"}, {"measurement": "Vd (volume of distribution)", "setting": "[1]; rat, in vivo, iv, 1 mg", "value": 3180, "unit": "mL"}, {"measurement": "factor by which absolute tissue drug concentration was higher than groups B and C", "setting": "[2]", "value": "7-10"}, {"measurement": "Ratio of tissue to plasma concentration", "setting": "[3]", "value": 3.12}, {"measurement": "lethality", "setting": "Sprague Dawley rats [4]", "value": "lethal"}, {"measurement": "traditional nerve block (ankle block)", "setting": "Sprague Dawley rats [5]", "value": "achieved"}]}]}
